Assay [1] addresses T1, acyl-CoA:cholesterol acyltransferase (ACAT) (Oryctolagus cuniculus, UniProt G1SFD9).
T1 construct: The intestinal mucosa of a white rabbit was homogenized and microsomal fraction was obtained; from tissue; host or cells: white rabbit intestinal mucosa, microsomal fraction
T1 sequence (G1SFD9 1-524): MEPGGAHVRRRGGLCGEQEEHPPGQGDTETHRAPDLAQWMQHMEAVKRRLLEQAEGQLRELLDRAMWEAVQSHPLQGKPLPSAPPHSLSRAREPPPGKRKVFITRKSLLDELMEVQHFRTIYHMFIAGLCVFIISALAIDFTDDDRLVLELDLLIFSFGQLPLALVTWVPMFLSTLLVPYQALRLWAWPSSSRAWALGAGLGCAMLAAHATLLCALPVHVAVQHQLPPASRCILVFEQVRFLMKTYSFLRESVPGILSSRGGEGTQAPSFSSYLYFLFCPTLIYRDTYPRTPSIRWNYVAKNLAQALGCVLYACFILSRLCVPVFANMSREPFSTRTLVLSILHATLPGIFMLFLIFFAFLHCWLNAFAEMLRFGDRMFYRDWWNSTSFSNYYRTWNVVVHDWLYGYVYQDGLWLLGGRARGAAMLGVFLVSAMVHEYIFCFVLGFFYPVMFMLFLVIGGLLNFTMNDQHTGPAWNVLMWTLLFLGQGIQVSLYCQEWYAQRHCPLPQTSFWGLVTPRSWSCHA
Briefly: Inhibitory activity on acyl-CoA:cholesterol acyltransferase (ACAT). Format: biochemical, white rabbit. The following applies: rabbit intestinal mucosa microsomes, read-out: Inhibition rate. The method, then: Inhibitory activity on acyl-CoA:cholesterol acyltransferase (ACAT)
The enzyme used in the test was prepared according to the method of Heider et al. [J. Lipid, Res. 24, 1127 (1983)]. The intestinal mucosa of a white rabbit was homogenized and microsomal fraction was obtained by stepwise centrifugation. The microsomal fraction was suspended in 0.154M phosphate buffer (pH 7.4) and stored at -80° C. until use.
ACAT activity was determined by a modification of the method of Helgerud et al. [J. Lipid Res. 22, 271 (1981)] by measuring radioactivity incorporated into cholesterol esters from [1-^14 C]oleyl-CoA, as an indication. As to the ACAT-inhibitory activity of each compound to be tested, the inhibition rate was calculated by the following equation. [formula]

In assay [2] the test system is hamsters fed on a high-cholesterol diet. Briefly: Serum cholesterol lowering activity in hamsters fed on a high-cholesterol diet. Format: in vivo, Male Syrian hamsters. The following applies: Mesocricetus auratus, 30 mg/kg per day for 4 days, 24 hours after last administration, read-out: Reduction rate of total serum cholesterol concentration. On the procedure:
Serum cholesterol lowering activity in hamsters fed on a high-cholesterol diet
Male Syrian hamsters of 10-week-old were divided into three groups. The first group (normal group) was fed an ordinary diet for 4 days. The second group (control group) was fed a high cholesterol diet (containing 0.5% cholesterol and 8.0% coconut oil) for 4 days. The third group (treated group) was fed a high cholesterol diet and was treated with a compound for 4 days. Simultaneously with the beginning of the above feeding, the compound was suspended in a 0.5% carboxymethyl cellulose solution and administered to the treated group, in a dose of 30 mg (in terms of the compound) per kg of body weight per day for 4 days. A 0.5% carboxymethyl cellulose solution was also administered to the normal group and the control group in the same manner as above.
After 24 hours of the last administration, blood was collected and the cholesterol concentration in serum was measured by an enzymatic method. The reduction rate of the total serum cholesterol concentration was calculated from values obtained for the three groups by the following equation. [formula] wherein A: the serum cholesterol concentration of the control group.
B: the serum cholesterol concentration of the treated group.
C: the serum cholesterol concentration of the normal group.

For assay [3], the system named is cholesterol esterification in macrophages (J774 A.I cells). Briefly: Inhibitory effect on cholesterol esterification in macrophages. Format: cell-based. The following applies: Mus musculus, AcLDL-loaded J774 A.I cells, read-out: Inhibition rate. The method, then:
Inhibitory effect on cholesterol esterification in macrophages
The test was carried out by a modification of the method of Goldstein et al. [Pro. Nat. Acad. Sci. U.S.A. 71, 4288 (1974)]. J774 A.I cells, the mouse macrophage-like cell line, were suspended in Dulbecco's modified Eagle's medium (DMEM) containing 10% fetal calf serum (FCS), in a proportion of 3×10^5 cells per 2 ml and were seeded into 6-well plates. The cells were cultured under a humidified atmosphere of 95% air/5% CO2 at 37° C. for 24 hours. The medium was replaced by 1 ml of DMEM containing 10% of FCS and 50 μg/ml of acetylated human low density lipoprotein (AcLDL), followed by culturing for 16 hours. Five microliters of each compound dissolved in dimethyl sulfoxide was added to the medium, and the cells were cultured for another 2 hours. Then, [^14 C]oleate (2×10^6 dpm/well) bovine serum albumin complex was added in the medium. After 2 hours of culture, cells were collected and the cholesterol-esterifying activity was determined by measuring radioactivity incorporated into cholesterol esters in the cells. The recovery of the cholesterol esters was determined by the addition of [^3 H]cholesteryl oleate, and the esterifying activity was corrected using the recovery. As to the inhibitory activity on cholesterol esterification of the compound to be tested, the inhibition rate was calculated by the following equation. [formula] wherein A: the cholesterol-esterifying activity of AcLDL-loaded cells to which the compound to be tested was added.
B: the cholesterol-esterifying activity of AcLDL-loaded cells to which dimethyl sulfoxide was added.

Broadly, the inhibition is the share of the control response that was lost under treatment. As to `Cc1nc(-c2ccccc2)nc(-c2ccccc2Cl)c1NC(=O)Nc1c(C(C)C)cccc1C(C)C` [Compound 2, N-[4-(2-Chlorophenyl)-6-methyl-2-phenylpyrimidin-5-yl]-N'-(2,6-diisopropylphenyl)urea], in assay [1], the inhibition at 0.01 µM amounted to 58.5% and the inhibition at 1 µM came out at 99.2%. Further, the inhibition in vivo at 30 mg/kg in assay [2] stood at 42.7%.

For the molecule `CCc1cccc(CC)c1NC(=O)Nc1cnc(-c2ccccc2)nc1-c1ccccc1Cl` [Compound 14, N-[4-(2-Chlorophenyl)-2-phenylpyrimidin-5-yl]-N'-(2,6-diethylphenyl)urea], in assay [1], the inhibition at 0.01 µM was found to be 58.8% and the inhibition at 1 µM came to 99%. Besides, the inhibition in vivo at 30 mg/kg in assay [2] came out at 59.4%.

As to `CC(C)c1cccc(C(C)C)c1NC(=O)Nc1cnc(-c2ccccc2)nc1-c1ccccc1Cl` [Compound 15, N-[4-(2-Chlorophenyl)-2-phenylpyrimidin-5-yl]-N'-(2,6-diisopropylphenyl)urea], in assay [1], the inhibition at 0.01 µM turned out to be 67.6% and the inhibition at 1 µM stood at 99.5%. For the same molecule, the inhibition in vivo at 30 mg/kg in assay [2] turned out to be 57.6%. In addition, in assay [3], the inhibition at 0.3 µM worked out at 29.5% and the inhibition at 1 µM came to 73.3%.

As for `CC(C)c1cccc(C(C)C)c1NC(=O)Nc1cnc(-c2ccccc2)nc1-c1ccccc1` [Compound 32, N-(2,6-Diisopropylphenyl)-N'-(2,4-diphenylpyrimidin-5-yl)urea], the inhibition at 0.01 µM in assay [1] came out at 73.5%. For the same molecule, the inhibition in vivo at 30 mg/kg in assay [2] stood at 63.7%. Moreover, in assay [3], the inhibition at 0.3 µM turned out to be 58% and the inhibition at 1 µM stood at 74.3%.

As for `CC(C)c1cccc(C(C)C)c1NC(=O)Nc1cnc(-c2ccccc2)nc1-c1ccccc1F` [Compound 34, N-(2,6-Diisopropylphenyl)-N'-[4-(2-fluorophenyl)-2-phenylpyrimidin-5-yl]urea], the inhibition at 0.01 µM in assay [1] came out at 65.8%. For the same molecule, the inhibition in vivo at 30 mg/kg in assay [2] worked out at 74%.

In the case of `Cc1ccccc1-c1nc(-c2ccccc2)ncc1NC(=O)Nc1c(C(C)C)cccc1C(C)C` [Compound 36, N-(2,6-Diisopropylphenyl)-N'-[4-(2-methylphenyl)-2-phenylpyrimidin-5-yl]urea], the inhibition at 0.01 µM in assay [1] was 72.9%. In assay [2], the inhibition in vivo at 30 mg/kg was 63.4%. The inhibition at 0.3 µM in assay [3] was 51.6%.

As for `CCc1cccc(CC)c1NC(=O)Nc1cnc(-c2ccccc2)nc1-c1ccccc1C(F)(F)F` [Compound 37, N-(2,6-Diethylphenyl)-N'-[2-phenyl-4-(2-trifluoromethylphenyl)pyrimidin-5-yl]urea], the inhibition at 0.01 µM in assay [1] worked out at 72.3%. Also, the inhibition in vivo at 30 mg/kg in assay [2] stood at 63.3%. Further, in assay [3], the inhibition at 0.3 µM came to 67.1% and the inhibition at 1 µM is 87.2%.

Take `CCc1cccc(CC)c1NC(=O)Nc1cnc(N2CCCCC2)nc1-c1ccccc1Cl` [Compound 55, N-[4-(2-Chlorophenyl)-2-(N-piperidino)pyrimidin-5-yl]-N'-(2,6-diethylphenyl)urea]: in assay [1], the inhibition at 0.01 µM came to 75.7%. In addition, the inhibition in vivo at 30 mg/kg in assay [2] came out at 77.5%. Further, in assay [3], the inhibition at 0.3 µM turned out to be 34.9%.

`CCc1cccc(CC)c1NC(=O)Nc1cnc(N2CCOCC2)nc1-c1ccccc1Cl` [Compound 57, N-[4-(2-Chlorophenyl)-2-(N-morpholino)pyrimidin-5-yl]-N'-(2,6-diethylphenyl)urea]: in assay [1], the inhibition at 0.01 µM came to 63.2%. For the same molecule, the inhibition in vivo at 30 mg/kg in assay [2] came out at 59.5%.
